From ChEMBL document CHEMBL3421531, “Synthesis, and structure-activity relationship for C(4) and/or C(5) thienyl substituted pyrimidines, as a new family of antimycobacterial compounds” (Eur J Med Chem, 2015)
Values after ≈ are worked out from the molar mass of the structure shown.

Legend:
[1] = tested on: Mycobacterium tuberculosis; test: Antimycobacterial activity against Mycobacterium tuberculosis H37Rv after 10 days by microbroth dilution method; format: functional; conditions: 240 h
Mycobacterium avium = test: Antimycobacterial activity against Mycobacterium avium after 10 days by microbroth dilution method; format: functional; conditions: 240 h
Mycolicibacter terrae = test: Antimycobacterial activity against Mycobacterium terrae after 10 days by microbroth dilution method; format: functional; conditions: 240 h
[2] = Toxicity in peroral dosed mouse after 14 days; format: organism-based; conditions: in vivo, po

Compound c1csc(-c2ncncc2-c2ccsc2)c1 has an MIC [1] of 25.6 µM (≈ 6.25 µg/mL), an MIC (Mycobacterium avium) of 25.6 µM (≈ 6.25 µg/mL) and an MIC (Mycolicibacter terrae) of 25.6 µM (≈ 6.25 µg/mL).

Work on c1ccc2c(-c3cncnc3)csc2c1 yielded an MIC [1] of 7.07 µM (≈ 1.5 µg/mL), an LD50 at 336 h [2] of 700 mg/kg and an MIC (Mycobacterium avium) of 3.3 µM (≈ 0.701 µg/mL). It also gave an MIC (Mycolicibacter terrae) of 3.3 µM (≈ 0.701 µg/mL).

c1ncc(-c2ccsc2)cn1 gave an MIC [1] of 77.1 µM (≈ 12.5 µg/mL), an MIC (Mycobacterium avium) of 77.1 µM (≈ 12.5 µg/mL) and an MIC (Mycolicibacter terrae) of 77.1 µM (≈ 12.5 µg/mL).

Work on c1ccc(-c2ccc(-c3ncncc3-c3cccs3)s2)cc1 yielded an MIC [1] of 39 µM (≈ 12.5 µg/mL), an MIC (Mycobacterium avium) of 39 µM (≈ 12.5 µg/mL) and an MIC (Mycolicibacter terrae) of 39 µM (≈ 12.5 µg/mL).

With c1ccc(-c2ccc(-c3ncncc3-c3cc4ccccc4s3)s2)cc1 the MIC [1] was 8.37 µM (≈ 3.1 µg/mL), the MIC (Mycobacterium avium) was 8.37 µM (≈ 3.1 µg/mL) and the MIC (Mycolicibacter terrae) was 4.05 µM (≈ 1.5 µg/mL).

c1csc(-c2ncncc2-c2cc3ccccc3s2)c1 gave an MIC [1] of 21.2 µM (≈ 6.25 µg/mL), an MIC (Mycobacterium avium) of 21.2 µM (≈ 6.25 µg/mL) and an MIC (Mycolicibacter terrae) of 21.2 µM (≈ 6.25 µg/mL).

In the case of NNC(=O)c1ccncc1 [ISONIAZID], the MIC [1] was 0.73 µM (≈ 0.1 µg/mL), the MIC (Mycobacterium avium) was 0.73 µM (≈ 0.1 µg/mL) and the MIC (Mycolicibacter terrae) was 0.73 µM (≈ 0.1 µg/mL).

c1csc(-c2ccc(-c3ccncn3)s2)c1 showed an MIC [1] of 51.2 µM (≈ 12.5 µg/mL), an MIC (Mycobacterium avium) of 51.2 µM (≈ 12.5 µg/mL) and an MIC (Mycolicibacter terrae) of 51.2 µM (≈ 12.5 µg/mL).

Work on Brc1cncnc1 yielded an MIC [1] of 78.6 µM (≈ 12.5 µg/mL), an MIC (Mycobacterium avium) of 78.6 µM (≈ 12.5 µg/mL) and an MIC (Mycolicibacter terrae) of 78.6 µM (≈ 12.5 µg/mL).

Compound c1ccc2sc(-c3cncnc3)cc2c1 has an MIC [1] of 58.9 µM (≈ 12.5 µg/mL), an MIC (Mycobacterium avium) of 58.9 µM (≈ 12.5 µg/mL) and an MIC (Mycolicibacter terrae) of 58.9 µM (≈ 12.5 µg/mL).

Brc1ccc(-c2ncncc2Br)s1 showed an MIC [1] of 9.69 µM (≈ 3.1 µg/mL), an MIC (Mycobacterium avium) of 9.69 µM (≈ 3.1 µg/mL) and an MIC (Mycolicibacter terrae) of 9.69 µM (≈ 3.1 µg/mL).

Brc1ccc(-c2cncnc2)s1 showed an MIC [1] of 51.8 µM (≈ 12.5 µg/mL), an MIC (Mycobacterium avium) of 51.8 µM (≈ 12.5 µg/mL) and an MIC (Mycolicibacter terrae) of 51.8 µM (≈ 12.5 µg/mL).

With c1csc(-c2ccc(-c3ncncc3-c3cc4ccccc4s3)s2)c1 the MIC [1] was 33.2 µM (≈ 12.5 µg/mL), the MIC (Mycobacterium avium) was 33.2 µM (≈ 12.5 µg/mL) and the MIC (Mycolicibacter terrae) was 33.2 µM (≈ 12.5 µg/mL).

For c1csc(-c2cncnc2-c2cccs2)c1, the MIC [1] was 12.7 µM (≈ 3.1 µg/mL), the MIC (Mycobacterium avium) was 12.7 µM (≈ 3.1 µg/mL) and the MIC (Mycolicibacter terrae) was 12.7 µM (≈ 3.1 µg/mL).

With Brc1ccc(-c2ncncc2-c2ccsc2)s1 the MIC [1] was 19.3 µM (≈ 6.25 µg/mL), the MIC (Mycobacterium avium) was 19.3 µM (≈ 6.25 µg/mL) and the MIC (Mycolicibacter terrae) was 19.3 µM (≈ 6.25 µg/mL).

With c1ccc(-c2ccc(-c3ncncc3-c3csc4ccccc34)s2)cc1 the MIC [1] was 0.4 µM (≈ 0.148 µg/mL), the LD50 at 336 h [2] was 45 mg/kg and the MIC (Mycobacterium avium) was 0.4 µM (≈ 0.148 µg/mL). It also gave an MIC (Mycolicibacter terrae) of 0.4 µM (≈ 0.148 µg/mL).

c1csc(-c2ccc(-c3ncncc3-c3csc4ccccc34)s2)c1 showed an MIC [1] of 0.98 µM (≈ 0.369 µg/mL), an LD50 at 336 h [2] of 90 mg/kg and an MIC (Mycobacterium avium) of 0.98 µM (≈ 0.369 µg/mL). It also gave an MIC (Mycolicibacter terrae) of 0.4 µM (≈ 0.151 µg/mL).

In the case of c1ccc(-c2ccc(-c3cncnc3)s2)cc1, the MIC [1] was 26.2 µM (≈ 6.25 µg/mL), the MIC (Mycobacterium avium) was 26.2 µM (≈ 6.25 µg/mL) and the MIC (Mycolicibacter terrae) was 26.2 µM (≈ 6.25 µg/mL).

Work on c1csc(-c2ccc(-c3ncncc3-c3ccsc3)s2)c1 yielded an MIC [1] of 19.1 µM (≈ 6.25 µg/mL), an MIC (Mycobacterium avium) of 19.1 µM (≈ 6.25 µg/mL) and an MIC (Mycolicibacter terrae) of 19.1 µM (≈ 6.25 µg/mL).

For NC(=O)c1cnccn1 [PYRAZINAMIDE], the MIC [1] was 102 µM (≈ 12.5 µg/mL).

Brc1ccc(-c2ncncc2-c2cc3ccccc3s2)s1 gave an MIC [1] of 33.5 µM (≈ 12.5 µg/mL), an MIC (Mycobacterium avium) of 33.5 µM (≈ 12.5 µg/mL) and an MIC (Mycolicibacter terrae) of 33.5 µM (≈ 12.5 µg/mL).

Work on c1csc(-c2ccc(-c3ncncc3-c3cccs3)s2)c1 yielded an MIC [1] of 2.14 µM (≈ 0.699 µg/mL), an LD50 at 336 h [2] of 160 mg/kg and an MIC (Mycobacterium avium) of 0.92 µM (≈ 0.3 µg/mL). It also gave an MIC (Mycolicibacter terrae) of 0.92 µM (≈ 0.3 µg/mL).

c1ccc(-c2ccc(-c3ncncc3-c3ccsc3)s2)cc1 showed an MIC [1] of 19.5 µM (≈ 6.25 µg/mL), an MIC (Mycobacterium avium) of 19.5 µM (≈ 6.25 µg/mL) and an MIC (Mycolicibacter terrae) of 19.5 µM (≈ 6.25 µg/mL).

With c1csc(-c2ncncc2-c2csc3ccccc23)c1 the MIC [1] was 42.5 µM (≈ 12.5 µg/mL), the MIC (Mycobacterium avium) was 42.5 µM (≈ 12.5 µg/mL) and the MIC (Mycolicibacter terrae) was 42.5 µM (≈ 12.5 µg/mL).

Compound c1csc(-c2cncnc2)c1 has an MIC [1] of 38.5 µM (≈ 6.25 µg/mL), an MIC (Mycobacterium avium) of 19.1 µM (≈ 3.1 µg/mL) and an MIC (Mycolicibacter terrae) of 19.1 µM (≈ 3.1 µg/mL).

Brc1ccc(-c2ncncc2-c2csc3ccccc23)s1 gave an MIC [1] of 8.3 µM (≈ 3.1 µg/mL), an MIC (Mycobacterium avium) of 8.3 µM (≈ 3.1 µg/mL) and an MIC (Mycolicibacter terrae) of 4.02 µM (≈ 1.5 µg/mL).

c1csc(-c2ccc(-c3cncnc3)s2)c1 gave an MIC [1] of 25.6 µM (≈ 6.25 µg/mL), an MIC (Mycobacterium avium) of 25.6 µM (≈ 6.25 µg/mL) and an MIC (Mycolicibacter terrae) of 25.6 µM (≈ 6.25 µg/mL).

Brc1ccc(-c2ncncc2-c2cccs2)s1 gave an MIC [1] of 38.7 µM (≈ 12.5 µg/mL), an MIC (Mycobacterium avium) of 38.7 µM (≈ 12.5 µg/mL) and an MIC (Mycolicibacter terrae) of 38.7 µM (≈ 12.5 µg/mL).
